Experimental data taken from ChEMBL document CHEMBL4396902, “Development of a Platform To Enable Efficient Permeability Evaluation of Novel Organo-Peptide Macrocycles” (ACS Med Chem Lett, 2019).

Experiment: Apparent permeability in dog MDCK2 cells incubated for 3 hrs
Assay type: ADME, cell-based, Canis lupus familiaris
Conditions: mdck-ii

| Papp | SMILES |
| --- | --- |
| 3.9 ×10⁻⁶ cm/s | CC[C@H](C)[C@@H]1NC(=O)CNc2cccc(c2)CNC(=O)[C@@H]2CCCN2C(=O)[C@H](Cc2ccc(F)cc2)NC(=O)[C@H](CC2CCCCC2)NC1=O |
| 2.9 ×10⁻⁶ cm/s | CC[C@H](C)[C@@H]1NC(=O)CCCNc2cccc(c2)CNC(=O)[C@@H]2CCCN2C(=O)[C@H](Cc2ccc(F)cc2)NC(=O)[C@H](CC2CCCCC2)NC1=O |
| 5.7 ×10⁻⁶ cm/s | CC[C@H](C)[C@@H]1NC(=O)CNc2cccc(c2)CCNC(=O)[C@@H]2CCCN2C(=O)[C@H](Cc2ccc(F)cc2)NC(=O)[C@@H](CC(C)C)NC1=O |
| 4 ×10⁻⁶ cm/s | CC(C)C[C@H]1NC(=O)[C@@H](C(C)C)NC(=O)CNc2cccc(c2)CCNC(=O)[C@@H]2CCCN2C(=O)[C@H](Cc2ccc(F)cc2)NC1=O |
| 5.5 ×10⁻⁶ cm/s | CC(C)C[C@H]1NC(=O)[C@@H](C(C)C)NC(=O)CNc2ccccc2CCNC(=O)[C@@H]2CCCN2C(=O)[C@H](Cc2ccc(F)cc2)NC1=O |
| 12.9 ×10⁻⁶ cm/s | CC[C@H](C)[C@@H]1NC(=O)CNc2ccccc2CCNC(=O)[C@@H]2CCCN2C(=O)[C@H](Cc2ccc(F)cc2)NC(=O)[C@@H](CC(C)C)NC1=O |
| 14.5 ×10⁻⁶ cm/s | CC[C@H](C)[C@@H]1NC(=O)CNc2ccccc2CCNC(=O)[C@@H]2CCCN2C(=O)[C@@H](Cc2ccccc2)NC(=O)[C@@H](CC(C)C)NC1=O |
| 7.6 ×10⁻⁶ cm/s | CC[C@H](C)[C@@H]1NC(=O)CNc2cccc(c2)CCNC(=O)[C@@H]2CCCN2C(=O)[C@@H](Cc2ccccc2)NC(=O)[C@@H](CC(C)C)NC1=O |
